Experimental data from US8530435B2, “Brassinosteroids in treating prostatic hyperplasia and androgenic alopecia” (Grasses of Eden Ltd., priority 2008, dated 2013).

What was measured:
[1] = system: mucous membranes of rabbits' eyes; conditions: concentrations of 0.2%; cited from earlier work
[2] = system: skin; conditions: in vivo; cited from earlier work
[3] = system: fish; conditions: in vivo; cited from earlier work
[4] = system: Tetrahymena pyriformis; conditions: over seven generations; cited from earlier work
[5] = system: Salmonella typhimurium TA 1534, TA 1537, TA 1950, TA 98, TA 100; conditions: with or without metabolic activation; cited from earlier work
[6] = system: mice; conditions: orally, mice (female); cited from earlier work
[7] = system: rats; conditions: cited from earlier work
[8] = system: mice CBAB1/6; conditions: cited from earlier work
[9] = system: human genital skin 5αR; test: 5α-reductase activity: reduction of testosterone to DHT in human foreskin tissue enzyme mixture, HPLC; assay type: biochemical; conditions: for Activity (% of control) / DHT/testosterone (final): initial testosterone 0.34 mM; for DHT/testosterone (final): control 0.1562
Protocol: 5α-reductase activity of soluble enzyme was measured by the reduction of testosterone at 37° C. during 40 min in a 3-ml enzyme mixture of human foreskin tissue or Bos taurus (Bovine) prostatic tissues, containing NADPH, with and without the test compound in parallel with analytical Ventranal standards for Testosterone and DHT. Tissue preparation and enzyme incubations were performed in accordance with Moore et al. (see below) with modifications. All steps were carried out at 4° C. Prostate or foreskin tissue was dissected and homogenized in ice-cold homogenization phosphate buffer at pH 8.0. The homogenate was centrifuged and the resulting cell free supernatant was stored in aliquots at −80° C. Inhibition of the steroid 5α-reductase was measured by incubating the enzyme and testosterone in the presence of a plant extract or a natural compound. […] The ratio of the peak areas gave quantitative measure of the inhibition [Neeman I. et al.: Urol.
The activity of 5α-reductase (EC: 1.3.99.5) was checked in human foreskin tissue and in bovine prostatic tissues. Pure compound and plant extracts were tested for their 5α-reductase inhibition activity, in various experiments.

[10] = cited from earlier work

Row | Activity (% of control) ([9]; inhibitor 10^−6M) | DHT/testosterone (final) ([9]; inhibitor 10^−6M) | Structure (SMILES) | irritation of mucous membranes of eyes [1] | skin irritation [2] | fish toxicity [3] | stimulative and toxico-protective properties in fish [3] | genetic safety / mutagenic activity [4] | Ames test for mutagenic activity [5] | LD50 [6] | LD50 ([7]; orally and dermally, rats (male/female)) | Dermal toxicity ([7]; rat, in vivo) | spontaneous mutations in micronuclear or chromosome abberation tests [8] | human skin reductase activity inhibited ([9]; as in Table 1 (10^−7M)) [%] | Activity (% of control) ([9]; inhibitor 10^−7M) | DHT/testosterone (final) ([9]; inhibitor 10^−7M) | toxicity and cumulative effect ([10]; acute, subacute, and chronic experiments) | adaptogenic effect (increasing adaptive ability of the population) ([10]; prolonged experiments) | toxicity ([10]; prolonged experiments)
1 |  |  | CC(C)[C@@H](C)[C@@H](O)[C@H](O)[C@@H](C)[C@H]1CC[C@H]2[C@@H]3COC(=O)[C@H]4C[C@H](O)[C@H](O)C[C@]4(C)[C@H]3CC[C@]12C [Epibrassinolide-24] | did not irritate | did not irritate the skin | no negative effects | pronounced stimulative and toxico-protective properties | absence of mutagenic activity | negative | more than 1000 mg/kg | more than 2000 mg/kg | more than 2000 mg/kg | neither epibrassinolide-24 nor the liquid formulation caused spontaneous mutations | 74 | 25.9 % of control | 0.0404 | low toxicity and very little cumulative effect | pronounced adaptogenic effect | no toxicity
2 | 32.7 % of control | 0.0607 | CC(C)(C)NC(=O)[C@H]1CC[C@H]2[C@@H]3CC[C@H]4NC(=O)C=C[C@]4(C)[C@H]3CC[C@]12C [Finasteride, reference compound] |  |  |  |  |  |  |  |  |  |  |  |  |  |  |  | 
